Reference: US7528162B2, “4,5-dihydro-1H-pyrazole derivatives having CB1-antagonistic activity” (Solvay Pharmaceuticals, B.V., priority 2001, dated 2009)

Row | Compound | melting point [°C]
1 | O=S(=O)(N=C(NN1CCCCC1)N1CC(c2ccccc2)C(c2ccc(Cl)cc2)=N1)c1ccc(Cl)cc1 (stereo not drawn) [Example 1, 3-(4-Chlorophenyl)-N′-((4-chlorophenyl)sulfonyl)-N-(piperidin-1-yl)-4-phenyl-4,5-dihydro-1H-pyrazole-1-carboxamidine] | 213 to 214
2 | O=S(=O)(N=C(NCCF)N1CC(c2c(F)cccc2F)C(c2ccc(Cl)cc2)=N1)c1ccc(Cl)cc1 (stereo not drawn) [Example 51, 3-(4-Chlorophenyl)-N′-((4-chlorophenyl)sulfonyl)-N-(2-fluoroethyl)-4-(2,6-difluorophenyl)-4,5-dihydro-1H-pyrazole-1-carboxamidine] | 153 to 155
3 | CN1CCN(C(=NS(=O)(=O)c2ccc(Cl)cc2)N2CC(c3cccc(C(F)(F)F)c3)C(c3ccc(Cl)cc3)=N2)CC1 (stereo not drawn) [Example 86, N-[(3-(4-chlorophenyl)-4-(3-(trifluoromethyl)phenyl)-4,5-dihydro-1H-pyrazol-1-yl)(4-methylpiperazin-1-yl)methylene]-4-chlorobenzenesulfonamide] | 97 to 100
4 | O=S(=O)(N=C(NCCF)N1CC(c2cccc(F)c2)C(c2ccc(Cl)cc2)=N1)c1ccc(Cl)cc1 (stereo not drawn) | 130
5 | O=S(=O)(N=C(NCCF)N1CC(c2cccc(F)c2)C(c2ccc(Cl)cc2)=N1)c1ccc(C(F)(F)F)cc1 (stereo not drawn) [Example 53, 3-(4-Chlorophenyl)-N-(2-fluoroethyl)-4-(3-fluorophenyl)-N′-((4-(trifluoromethyl)phenyl)sulfonyl)-4,5-dihydro-1H-pyrazole-1-carboxamidine] | 155
6 | CONC(=NS(=O)(=O)c1ccc(Cl)cc1)N1CC(c2cccc(C(F)(F)F)c2)C(c2ccc(Cl)cc2)=N1 (stereo not drawn) [Example 49, 3-(4-Chlorophenyl)-N′-((4-chlorophenyl)sulfonyl)-N-methoxy-4-(3-(trifluoromethyl)phenyl)-4,5-dihydro-1H-pyrazole-1-carboxamidine] | 80 to 83
7 | CONC(=NS(=O)(=O)c1ccc(Cl)cc1)N1CC(c2c(F)cccc2F)C(c2ccc(Cl)cc2)=N1 (stereo not drawn) | 174 to 177

Continued, values first:

Row | melting point [°C] | Compound
8 | 162 to 164 | CONC(=NS(=O)(=O)c1ccc(Cl)cc1)N1CC(c2ccccc2F)C(c2ccc(Cl)cc2)=N1 (stereo not drawn) [Example 56, 3-(4-Chlorophenyl)-N′-((4-chlorophenyl)sulfonyl)-4-(2-fluorophenyl)-N-(methoxy)-4,5-dihydro-1H-pyrazole-1-carboxamidine]
9 | 151 to 152 | CONC(=NS(=O)(=O)c1cccc(C)c1)N1CC(c2ccccc2)C(c2ccc(Cl)cc2)=N1 (stereo not drawn)
10 | 201 to 203 | CONC(=NS(=O)(=O)c1ccc(Cl)cc1)N1CC(c2ccccc2)C(c2ccc(F)cc2)=N1 (stereo not drawn)
11 | > 260 | CONC(=NS(=O)(=O)c1ccc(C(F)(F)F)cc1)N1CC(c2cccc(F)c2)C(c2ccc(Cl)cc2)=N1 (stereo not drawn)
12 | 147 to 149 | CONC(=NS(=O)(=O)c1ccc(C(F)(F)F)cc1)N1CC(c2ccccc2F)C(c2ccc(Cl)cc2)=N1 (stereo not drawn)
13 | 180 to 181 | CONC(=NS(=O)(=O)c1ccc(Cl)cc1)N1CC(c2ccccc2)C(c2ccc(Cl)s2)=N1 (stereo not drawn) [Example 47, 3-(5-Chlorothien-2-yl)-N′-((4-chlorophenyl)sulfonyl)-N-methoxy-4-phenyl-4,5-dihydro-1H-pyrazole-1-carboxamidine]
14 | 160 to 162 | CONC(=NS(=O)(=O)c1cc(F)c(F)cc1F)N1CC(c2ccccc2)C(c2ccc(Cl)cc2)=N1 (stereo not drawn)
15 | 145 to 146 | CONC(=NS(=O)(=O)c1ccccc1C)N1CC(c2ccccc2)C(c2ccc(Cl)cc2)=N1 (stereo not drawn)
